Results from the NIST ThermoML archive (doi:10.1016/j.jct.2012.02.028).
± gives the expanded uncertainty stated by the source.

Conditions: 101.33 kPa, Crystal, Vacuum adiabatic calorimetry

O=C([O-])[O-].[Zn+2] [zinc(II) carbonate]
Conditions | molar entropy [J/K/mol]
5 K | 0.00258
10 K | 0.02006 ± 0.015
15 K | 0.07123 ± 0.016
20 K | 0.1881 ± 0.017
25 K | 0.41 ± 0.018
30 K | 0.7694 ± 0.062
35 K | 1.284 ± 0.064
40 K | 1.959 ± 0.066
45 K | 2.788 ± 0.068
50 K | 3.759 ± 0.071
55 K | 4.862 ± 0.075
60 K | 6.081 ± 0.078
65 K | 7.403 ± 0.082
70 K | 8.815 ± 0.086
75 K | 10.3 ± 0.09
80 K | 11.85 ± 0.1
85 K | 13.45 ± 0.1
90 K | 15.1 ± 0.32
95 K | 16.78 ± 0.33
100 K | 18.49 ± 0.33
105 K | 20.21 ± 0.33
110 K | 21.95 ± 0.33
115 K | 23.7 ± 0.34
120 K | 25.45 ± 0.34
130 K | 28.95 ± 0.34
140 K | 32.44 ± 0.35
150 K | 35.9 ± 0.35
160 K | 39.32 ± 0.36
170 K | 42.69 ± 0.36
180 K | 46.02 ± 0.37
190 K | 49.28 ± 0.37
200 K | 52.5 ± 0.38
210 K | 55.65 ± 0.38
220 K | 58.75 ± 0.39
230 K | 61.8 ± 0.39
240 K | 64.79 ± 0.4
250 K | 67.73 ± 0.4
260 K | 70.62 ± 0.41
270 K | 73.48 ± 0.41
273.15 K | 74.37 ± 0.41
280 K | 76.29 ± 0.41
290 K | 79.06 ± 0.42
298.15 K | 81.28 ± 0.42
300 K | 81.78 ± 0.42
310 K | 84.45 ± 0.43
320 K | 87.09 ± 0.43
